# In patent publication US20230390176A1, “Cosmetic Skin and Medical Cream” (Protecta-Skincare, Inc., priority 2021, published 2023):
# What was measured:
# [1] = system: human keratinocytes; test: lifespan of human keratinocytes with YEL002; assay type: cell-based; settings: application of the active ingredient YEL002
# [2] = disclosed in U.S. Pat. No. 9,045,474; cited from earlier work
structure (smiles),measurement,setting,value
COc1ccc2cc(-c3nc4ccc(C)cn4c3NCc3ccco3)c(=O)[nH]c2c1 [YEL002],human keratinocytes live longer (anti-aging),[1],15%
same,mitigating tissue damage induced by an agent,[2],effective in mitigating tissue damage
